Test results from ChEMBL document CHEMBL3351830, “Discovery and structure-activity relationships of phenyl benzenesulfonylhydrazides as novel indoleamine 2,3-dioxygenase inhibitors” (Bioorg Med Chem Lett, 2014).

How the values were obtained:
[1] = molecular target: T1, Indoleamine 2,3-dioxygenase 1 (Homo sapiens, UniProt P14902); assay: Inhibition of human recombinant IDO expressed in Escherichia coli using N-formylkynurenine as substrate incubated for 1 hr prior to NaOH addition measured after 4 hrs by spectrophotometry
T1 sequence (P14902 whole entry): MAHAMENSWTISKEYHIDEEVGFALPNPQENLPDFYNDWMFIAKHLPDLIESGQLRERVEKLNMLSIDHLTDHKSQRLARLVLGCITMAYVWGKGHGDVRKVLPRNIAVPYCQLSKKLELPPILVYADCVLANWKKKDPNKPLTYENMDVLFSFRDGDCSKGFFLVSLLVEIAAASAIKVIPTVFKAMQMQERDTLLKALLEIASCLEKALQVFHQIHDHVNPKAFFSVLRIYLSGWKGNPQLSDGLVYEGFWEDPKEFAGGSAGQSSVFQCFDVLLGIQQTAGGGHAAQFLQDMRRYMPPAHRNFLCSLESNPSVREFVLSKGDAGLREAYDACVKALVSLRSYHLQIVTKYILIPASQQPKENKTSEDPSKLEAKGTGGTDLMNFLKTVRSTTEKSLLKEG

[2] = molecular target: T1, Indoleamine 2,3-dioxygenase 1; assay: Inhibition of IDO in human HeLa cells after 24 hrs by spectrophotometry; assay type: cell-based

| SMILES | IC50 [1] [nM] | EC50 [2] [nM] |
| --- | --- | --- |
| CC(=O)Nc1ccc(S(=O)(=O)NNc2cccc(C)c2)cc1 | 49 | 241 |
| O=S(=O)(CCc1ccccc1)NNc1ccccc1 | 167 | > 10000 |
| Cc1cccc(NNS(=O)(=O)c2ccc(C(=O)NCC(=O)O)cc2)c1 | 80 | 271 |
| Cc1cccc(NNS(=O)(=O)c2ccc(S(C)(=O)=O)cc2)c1 | 43 | 7850 |
| Cc1cccc(NNS(=O)(=O)c2ccc(C#N)cc2)c1 | 59 | 3400 |
| Cc1cccc(NNS(=O)(=O)c2ccc(Oc3ccc(C(F)(F)F)cn3)cc2)c1 | 59 | 296 |
| CC(=O)Nc1ccc(S(=O)(=O)NNc2ccccc2)cc1 | 71 | > 10000 |
| CC(=O)Nc1ccc(S(=O)(=O)NNc2ccc(S(N)(=O)=O)cc2)cc1 | 2480 | 3120 |
| CC(=O)Nc1ccc(S(=O)(=O)NNc2cccc(F)c2)cc1 | 122 | > 10000 |
| CC(=O)Nc1ccc(S(=O)(=O)NNc2ccc(F)c(Br)c2)cc1 | 128 | 2490 |
| CC(=O)Nc1ccc(S(=O)(=O)NNc2ccc(F)c(Cl)c2)cc1 | 110 | 2590 |
| CC(=O)Nc1ccc(S(=O)(=O)NNc2ccc(Br)c(F)c2)cc1 | 205 | 187 |
| CC(=O)Nc1ccc(S(=O)(=O)NNc2ccc(Br)c(C)c2)cc1 | 58 | 130 |
| CC(=O)Nc1ccc(S(=O)(=O)NNc2ccc(Cl)c(F)c2)cc1 | 194 | 84 |
| CC(=O)Nc1ccc(S(=O)(=O)NNc2cc(F)cc(F)c2)cc1 | 1750 | 2230 |
| CC(=O)Nc1ccc(S(=O)(=O)NNc2ccc(F)cc2F)cc1 | 608 | > 10000 |
| CC(=O)Nc1ccc(S(=O)(=O)NNc2ccc(Cl)c(Cl)c2)cc1 | 247 | 350 |
| CC(=O)Nc1ccc(S(=O)(=O)NNc2cc(Cl)cc(Cl)c2)cc1 | 352 | 508 |
| O=S(=O)(NNc1ccc(Br)cc1)c1ccccc1 | 172 | 128 |
| CC(=O)Nc1ccc(S(=O)(=O)NN(C)c2ccc(Br)cc2)cc1 | 4050 |  |

Now from value to molecule:

| IC50 [1] [nM] | EC50 [2] [nM] | SMILES |
| --- | --- | --- |
| 51 | 1170 | CC(=O)Nc1ccc(S(=O)(=O)NNc2ccc(C)cc2)cc1 |
| 254 | > 10000 | COc1ccc(NNS(=O)(=O)c2ccc(NC(C)=O)cc2)cc1 |
| 5670 | 1390 | CC(=O)Nc1ccc(S(=O)(=O)NNc2ccc(C#N)cc2)cc1 |
| 1610 | 181 | CC(=O)Nc1ccc(S(=O)(=O)NNc2ccc(C(F)(F)F)cc2)cc1 |
| 79 | 609 | CC(=O)Nc1ccc(S(=O)(=O)NNc2ccc(F)cc2)cc1 |
| 155 | 142 | CC(=O)Nc1ccc(S(=O)(=O)NNc2ccc(Cl)cc2)cc1 |
| 130 | 85 | CC(=O)Nc1ccc(S(=O)(=O)NNc2ccc(Br)cc2)cc1 |
| 255 | 7560 | CC(=O)Nc1ccc(S(=O)(=O)NNc2cccc(Br)c2)cc1 |
| 85 | 374 | O=S(=O)(NNc1ccc(Br)cc1)c1ccc(Br)cc1 |
| 1430 | 640 | COc1ccc(S(=O)(=O)NNc2ccc(Br)cc2)cc1 |
| 176 | 134 | N#Cc1ccc(S(=O)(=O)NNc2ccc(Br)cc2)cc1 |
| 121 | 465 | COC(=O)CCc1ccc(S(=O)(=O)NNc2ccc(Br)cc2)cc1 |
| 132 | 187 | CCCC(=O)Nc1ccc(S(=O)(=O)NNc2ccc(Br)cc2)cc1 |
| 141 | 183 | O=C(O)CCc1ccc(S(=O)(=O)NNc2ccc(Br)cc2)cc1 |
| 125 | 152 | O=C(O)COc1ccc(S(=O)(=O)NNc2ccc(Br)cc2)cc1 |
| 61 | 172 | O=C(O)c1ccc(S(=O)(=O)NNc2ccc(Br)cc2)cc1 |
